Measured values taken from the OligoGym collection.
Values joined by “and” are separate entries in the source; they are usually repeats but may differ in a detail not shown here. Equal values may be shown once. After the bases stand the sugars from the 5' end (letter, count) and the backbone: PS all phosphorothioate, else s phosphorothioate and o phosphodiester by linkage. Methylation of C is not given here. e = 2'-O-(2-methoxyethyl) (MOE); k = constrained ethyl (cEt); d = 2'-deoxy (DNA)

Target: IRF4
Settings: ASO

“ATGTGATAGCTGAGCT (sugars kdddddddddkekeke, PS)” was tested, and the target mRNA inhibition (MM.1R, 1 µM) was 15%.

For “GAAGTTTACACTGGAT (sugars kkdddddddddekeke, PS)”, the target mRNA inhibition (MM.1R, 0.074 µM) was 14%, the target mRNA inhibition (MM.1R, 0.222 µM) was 26% and the target mRNA inhibition (MM.1R, 0.666 µM) was 50%. For the same sequence, the target mRNA inhibition (MM.1R, 1 µM) was 58% and the target mRNA inhibition (MM.1R, 2 µM) was 59%.

In the case of AAAATATCGCCCATGA (sugars k3 d10 k3, PS), the target mRNA inhibition (SK-MEL-28, 4 µM) is reported as 41%.

In the case of AGCTCATCTGCCAATC (sugars k3 d10 k3, PS), the target mRNA inhibition (SK-MEL-28, 4 µM) is reported as 33%.

GCAATTGAAATGGAGC (sugars k3 d10 k3, PS) gave a target mRNA inhibition (SK-MEL-28, 4 µM) of 24%.

“CTGTTACCGATGCTTC (sugars kkdddddddddekeke, PS)” was tested, and the target mRNA inhibition (MM.1R, 1 µM) was 50% and 60%.

Sequence TGCTCACTAAGCTTGA (sugars k3 d10 k3, PS) has a target mRNA inhibition (MM.1R, 1 µM) of 12%.

AACACCTGATCTTGCT (sugars k3 d10 k3, PS) gave a target mRNA inhibition (SK-MEL-28, 4 µM) of -10%.

With CGTAGCCCCTCAGGAA (sugars k3 d10 k3, PS) the target mRNA inhibition (MM.1R, 4 µM) was 81% and 59%.

With CCTTGAAGAGCGCGGC (sugars k3 d10 k3, PS) the target mRNA inhibition (SK-MEL-28, 4 µM) was 24%.

TCCCACGAAGGGCAGT (sugars k3 d10 k3, PS) was tested, and the target mRNA inhibition (SK-MEL-28, 4 µM) was 6%.

TTCCAGGTCATTTGAC (sugars k3 d10 k3, PS) showed a target mRNA inhibition (MM.1R, 0.074 µM) of 2%, a target mRNA inhibition (MM.1R, 0.222 µM) of 3% and a target mRNA inhibition (MM.1R, 0.666 µM) of 9%. For the same sequence, the target mRNA inhibition (MM.1R, 2 µM) was 27% and the target mRNA inhibition (SK-MEL-28, 4 µM) was 66%.

With GGGCAGTCAATTGGAC (sugars k3 d10 k3, PS) the target mRNA inhibition (SK-MEL-28, 4 µM) was 25%.

ACCTACAAGCAGTCAT (sugars k3 d10 k3, PS) gave a target mRNA inhibition (SK-MEL-28, 4 µM) of 46%.

With AATGGATAGTTTCTCA (sugars k3 d10 k3, PS) the target mRNA inhibition (MM.1R, 0.0625 µM) was -2% and -14%, the target mRNA inhibition (MM.1R, 0.074 µM) was 11% and the target mRNA inhibition (MM.1R, 0.222 µM) was 8%. For the same sequence, the target mRNA inhibition (MM.1R, 0.25 µM) was 6% and 5%, the target mRNA inhibition (MM.1R, 0.666 µM) was 23% and the target mRNA inhibition (MM.1R, 1 µM) was 21% and 36%. The target mRNA inhibition (MM.1R, 2 µM) was 45%, the target mRNA inhibition (MM.1R, 4 µM) was 45% and 50% and the target mRNA inhibition (SK-MEL-28, 4 µM) was 63%.

Work on TCCTCCACTACCATAT (sugars k3 d10 k3, PS) yielded a target mRNA inhibition (MM.1R, 1 µM) of -13%.

Work on TGCTGAACCCCACAGG (sugars k3 d10 k3, PS) yielded a target mRNA inhibition (SK-MEL-28, 4 µM) of 33%.

With TGGCTCATGGACATCT (sugars k3 d10 k3, PS) the target mRNA inhibition (SK-MEL-28, 4 µM) was 32%.

In the case of AGTTTGTGAAGCATCC (sugars k3 d10 k3, PS), the target mRNA inhibition (SK-MEL-28, 4 µM) is reported as 69%.

For ATTTCCGGGTGTGGCT (sugars k3 d10 k3, PS), the target mRNA inhibition (MM.1R, 1 µM) was 7%.

In the case of CTGAAGCTTAGTTATC (sugars k3 d10 k3, PS), the target mRNA inhibition (SK-MEL-28, 4 µM) is reported as 38%.

In the case of CCAATAGTCTAGCTGG (sugars k3 d10 k3, PS), the target mRNA inhibition (SK-MEL-28, 4 µM) is reported as 19%.

With TTTATAACCGGTAGAG (sugars k3 d10 k3, PS) the target mRNA inhibition (SK-MEL-28, 4 µM) was 54%.

For GCTTTTTCAAACACTA (sugars k3 d10 k3, PS), the target mRNA inhibition (SK-MEL-28, 4 µM) was 68%.

TAGTGCTGTGCAGACC (sugars k3 d10 k3, PS) showed a target mRNA inhibition (SK-MEL-28, 4 µM) of 32%.

Sequence CTTAAGCAAGTGGAGG (sugars k3 d10 k3, PS) has a target mRNA inhibition (SK-MEL-28, 4 µM) of 70%.

TGATGTGATAGCTGAG (sugars k3 d10 k3, PS) showed a target mRNA inhibition (MM.1R, 1 µM) of 59%.

CAATGAACGGAAGTTT (sugars k3 d10 k3, PS) showed a target mRNA inhibition (SK-MEL-28, 4 µM) of 33%.

TCCCTTAGGATAATAT (sugars k3 d10 k3, PS) showed a target mRNA inhibition (SK-MEL-28, 4 µM) of 48%.

TAGAAAGAGCTGGTAG (sugars k3 d10 k3, PS) gave a target mRNA inhibition (SK-MEL-28, 4 µM) of 9%.

GATCCTGAGAGTAAAC (sugars k3 d10 k3, PS) gave a target mRNA inhibition (MM.1R, 1 µM) of 6%.

In the case of TGTAGGGCGACTAACT (sugars k3 d10 k3, PS), the target mRNA inhibition (SK-MEL-28, 4 µM) is reported as 21%.

TCAGTTTGTGAAGCAT (sugars k3 d10 k3, PS) was tested, and the target mRNA inhibition (SK-MEL-28, 4 µM) was 75% and 89%.

ACCAAAAGTACCACAG (sugars k3 d10 k3, PS) was tested, and the target mRNA inhibition (MM.1R, 1 µM) was -8%.

Sequence GGCAACCTGCATTTGC (sugars k4 d8 k4, PS) has a target mRNA inhibition (SK-MEL-28, 4 µM) of -12%.

GTGATAGGTATACTTA (sugars k3 d10 k3, PS) showed a target mRNA inhibition (SK-MEL-28, 4 µM) of 65%.

GCAGAGCAATTTACAT (sugars k3 d10 k3, PS) showed a target mRNA inhibition (SK-MEL-28, 4 µM) of 66%.

Sequence “TGCTTGAGGTTTTCCT (sugars kkkdddddddddkeke, PS)” has a target mRNA inhibition (MM.1R, 1 µM) of 35%.

“AAGTGTCTAAAGTCCC (sugars kkddddddddddkeke, PS)” was tested, and the target mRNA inhibition (MM.1R, 1 µM) was 10% and 12%.

In the case of “CAGTGACTTGCATCCA (sugars kddddddddddkekek, PS)”, the target mRNA inhibition (MM.1R, 1 µM) is reported as 29%.

TGGCACAGACATACCT (sugars k3 d10 k3, PS) showed a target mRNA inhibition (SK-MEL-28, 4 µM) of 38%.

AACTATCTTATTCCTC (sugars k3 d10 k3, PS) showed a target mRNA inhibition (SK-MEL-28, 4 µM) of 30%.

Work on TGGGAGTAATAGTAAA (sugars k3 d10 k3, PS) yielded a target mRNA inhibition (SK-MEL-28, 4 µM) of 16%.

Work on CTAAGCTTGATAAAGG (sugars k3 d10 k3, PS) yielded a target mRNA inhibition (SK-MEL-28, 4 µM) of 54%.

With “AGCATTTTATCATCCG (sugars k2 d9 e3 k2, PS)” the target mRNA inhibition (MM.1R, 1 µM) was 28%.

Sequence CCACAACTCTCGCCTC (sugars k3 d10 k3, PS) has a target mRNA inhibition (MM.1R, 1 µM) of -9%.

For CGATCATCAACTTCTT (sugars k3 d10 k3, PS), the target mRNA inhibition (MM.1R, 0.0625 µM) was 24% and 23%, the target mRNA inhibition (MM.1R, 0.25 µM) was 50% and the target mRNA inhibition (MM.1R, 1 µM) was 72% and 75%. For the same sequence, the target mRNA inhibition (MM.1R, 4 µM) was 92% and 93%.
